Where no end group is shown, it is not given here. The star is where a group is joined. Myristoyl = CCCCCCCCCCCCCC(=O)*
Legend:
[1] = TEM of self-assembled structures; type: physicochemical; conditions: 32 μg/mL, deionized water, 1.5% PTA negative stain
Description: The self-assembly morphology of peptide amphiphiles in water was observed using TEM. Each sample was mounted on a 300-mesh copper-coated carbon grid and then negatively stained with a 1.5% phosphotungstic acid solution (1.5% PTA). Before imaging, all samples were air-dried for approximately 10 min. Finally, the samples were characterized under an acceleration voltage of 80 kV.

[2] = tested on: E. coli (ATCC 25922); assay: MIC and growth inhibition, broth microdilution; type: cell-based, Escherichia coli
Description: The minimum inhibitory concentrations (MICs) of DM and MYR-DM-ANG1-7 were determined using the broth microdilution method. E. coli (ATCC 25922) and S. aureus (ATCC 25923) were cultured overnight in Mueller–Hinton broth (MHB) at 37°C. The cultures were diluted to 2 × 10^5 CFU/mL. The peptides were serially diluted in 10 mM phosphate-buffered solution (PBS) and added to a 96-well plate. The bacterial suspensions were mixed with an equal volume of peptide solution and incubated at 37°C for 18 h. Bacterial growth inhibition was determined by measuring the absorbance at 600 nm using a M200 multiwavelength microplate reader (Infinite M200 PRO, Switzerland). Subsequently, bacterial suspensions were treated with 1 × MIC, 2 × MIC, 3 × MIC, and 4 × MIC concentrations of the AMPs and sampled at 0, 3, 6, 12, 18, and 24 h. The absorbance was measured at 600 nm. The experiment was repeated three times.

[3] = tested on: HUVECs; assay: Mitochondrial membrane potential, JC-1; type: cell-based, human; conditions: HG + LPS, 20 μg/mL, p < 0.0001
Description: JC-1 is a widely used and ideal fluorescent probe for detecting MMP. When the MMP is high, JC-1 accumulates in the matrix of the mitochondria, forming J-aggregates that emit red fluorescence. When the MMP is low, JC-1 cannot accumulate in the mitochondrial matrix, remaining as a monomer that emits green fluorescence. HUVECs were cultured in well plates containing DMEM at a density of 1 × 10^6 cells/well. Following the indicated treatments, the slides were washed three times with PBS and the cells were incubated with 1 mg/l JC-1 at 37°C for 30 min in the incubator, washed briefly three times with PBS. The fluorescence was measured over the entire field of vision using a fluorescent microscope connected to an inverted fluorescence microscope (ThermoFish EVOS, United States). The experiment was repeated three times.

[4] = tested on: HUVECs; assay: MDA, thiobarbituric acid method; type: cell-based, human; conditions: HUVEC supernatant, HG + LPS (HG + LPS increased by 1.65 times); n = 3
Description: The level of MDA was determined by the thiobarbituric acid (TBA) method. Briefly, 100 μL of cell supernatant was mixed with 200 μL of a 10% trichloroacetic acid solution of 0.67% TBA. The mixture was incubated at 95°C for 30 min, cooled on ice, and centrifuged at 12,000 × g at 4°C for 10 min. The absorbance of the supernatant was measured at 532 nm using an enzyme-labeled instrument. The experiments were repeated three times.

[5] = tested on: S. aureus (ATCC 25923) infected diabetic wound; assay: Diabetic mouse S. aureus-infected full-thickness skin wound model; conditions: for wound healing rate: 200 μL subcutaneously for 3 days, n = 4
Description: BALB/c male mice are from the Experimental Animal Center of Air Force Military Medical University. One group was fed a normal diet, and the other five groups were fed a high-fat diet for 4 weeks and then injected with 35 mg/kg streptozotocin (STZ, 35 mg/kg, Sigma) intraperitoneally for 3 days. […] After intraperitoneal injection of pentobarbital sodium (1%, […]), the dorsal hair of each animal was shaved off, and a circular full-thickness skin wound was created on the back using a 10-mm sterile mouse punch. S. aureus (ATCC 25923) was used to infect the wound site of mice, and a full-thickness wound infection model of mice was established. S. aureus was first resuscitated by operation in a biological ultra-clean table. A single colony was picked and incubated in LB medium at 37°C and 200 rpm. The concentration of the above S. aureus solution was adjusted to 1 × 10^8 CFU/mL to infect the wound of mice. Then, 24 h after S. aureus infection, three drugs, DM (20 μg/mL), ANG1-7 (20 μg/mL), and MYR-DM-ANG1-7 (20 μg/mL), were dissolved in PBS buffer, and 200 μL was injected subcutaneously for 3 days. After drug injection, the wound pus was diluted and coated with plate culture to observe the colony situation. The gross specimen imaging system (GF-7A, China) was used to record the wounds of mice on the same day and every other day after the formation of the wounds. The rubber ring with adhesive backing was used to fix the wound and prevent it from shrinking. ImageJ analysis software (NIH, Bethesda, MD, United States) was used to calculate and analyze the wound area. After 0, 3, 7, 10, and 14 days, the size of the infected wound was evaluated by rubber ring. The wound closure was measured as follows: the wound healing rate (%) = [W0 − Wn]/W0 × 100%, where W0 and Wn represent the wound area on the 0th and nth days, respectively (n = 4).
On the 14th day, the skin tissue was fixed in 4% paraformaldehyde solution, dehydrated, embedded in paraffin, sliced, and stained with hematoxylin–eosin (HE) and Masson. Skin tissue sections on Day 7 were immunofluorescently stained using rabbit anti-mouse CD31 (Cell Signaling Technology) and α-SMA (Cell Signaling Technology), and all stained sections were observed under the slide scanner (Aperio AT 2; Leica Biosystems, Germany).

## Myristoyl-SSRRKPCKGWLCKLKLRGGYTLIGSATNLNRPTYVRAGGGDRVYIHP (cysteines drawn unpaired) [MYR-DM-ANG1-7]
[1]
  particle size of micelles: 22.38 ± 1.63 nm
[2]; 4 × MIC (128 μg/mL), OD 600 nm at 0-24 h, repeated three times
  growth of E. coli (inhibition curve): completely inhibit
[2]; E. coli ATCC 25922, broth microdilution, MHB, 2 × 10^5 CFU/mL, 37°C, 18 h, absorbance 600 nm
  Minimum inhibitory concentration: 12 µg/mL
[2]; from MIC values against S. aureus and E. coli
  increase of antibacterial efficacy compared to DM: 1.3 fold
[3]
  mitochondrial membrane potential (JC-1): increase
[4]
  secretion of MDA, decreased by: 0.51 times
[5]; 7th day, 20 μg/mL in PBS
  wound healing rate: 72.77%
[5]; 10th day (diabetic control 40.26%), 20 μg/mL
  wound healing rate: 85.22%
[5]; 14th day (diabetic control 52.34%), 20 μg/mL
  wound healing rate: 95.66%
[5]; 14th day, H&E
  pathological changes in the liver and kidneys: no evidence of organ damage or pathological changes
[5]; Day 7, compared with the diabetes infection group, p < 0.05
  blood vessels, CD31 immunofluorescence: more blood vessels
[5]; Day 14, compared with the diabetes infection group
  epidermis of wound tissue (HE staining): became thinner
[5]; Day 14, p < 0.0001
  collagen deposition area (Masson staining): became larger
[5]; seventh day, vs the diabetes infection group, p < 0.01
  fluorescence intensity of α-SMA: significantly higher
[5]; wound pus plated on LB agar after 24 h of treatment, p < 0.0001
  number of bacteria in the wound: decreased
